Source: patent US20230040182A1, “ARYL HETEROBICYCLIC COMPOUNDS AS Kv1.3 POTASSIUM SHAKER CHANNEL BLOCKERS” (priority 2019, published 2023)

Target: T1, Kv1.3 potassium channel (Homo sapiens, UniProt P22001)
T1 construct: expressed in transfected cells
Experiment: Kv1.3 potassium channel blocker activity, automated whole-cell patch clamp (Patchliner)
Format: cell-based
Details: CHO-K1 cells stably expressing Kv1.3; whole-cell current, Hill fit
Procedure: Example 9. Evaluation of Kv1.3 Potassium Channel Blocker Activities
This assay is used to evaluate the disclosed compounds' activities as Kv1.3 potassium channel blockers.
CHO-K1 cells stably expressing Kv1.3 were grown in DMEM containing 10% heat-inactivated FBS, 1 mM Sodium Pyruvate, 2 mM L-Glutamine and G418 (500 μg/ml). Cells were grown in culture flasks at 37° C. in a […] incubator.
The cells were bathed in an extracellular solution containing 140 mM NaCl, 4 mM KCl, 2 mM CaCl2, 1 mM MgCl2, 5 mM Glucose, 10 mM HEPES; pH adjusted to 7.4 with NaOH; 295-305 mOsm. The internal solution contained 50 mM KCl, 10 mM NaCl, 60 mM KF, 20 mM EGTA, 10 mM HEPES; pH adjusted to 7.2 with KOH; 285 mOsm. All compounds were dissolved in DMSO at 30 mM. Compound stock solutions were freshly diluted with external solution to concentrations of 30 nM, 100 nM, 300 nM, 1 μM, 3 μM, 10 μM, 30 μM and 100 μM. The highest content of DMSO (0.3%) was present in 100 μM.
The currents were evoked by applying 100 ms depolarizing pulses from −90 mV (holding potential) to +40 mV were applied with 0.1 Hz frequency. Control (compound-free) and compound pulse trains for each compound concentration applied contained 20 pulses. 10-second breaks were used between pulse trains (see Table A below).
Whole-cell current recordings and compound application were enabled by means of an automated patch clamp platform Patchliner (Nanion Technologies GmbH). EPC 10 patch clamp amplifier (HEKA Elektronik Dr. Schulze GmbH) along with Patchmaster software (HEKA Elektronik Dr. Schulze GmbH) was used for data acquisition. Data were sampled at 10 kHz without filtering. Passive leak currents were subtracted online using a P/4 procedure (HEKA Elektronik Dr. Schulze GmbH). Increasing compound concentrations were applied consecutively to the same cell without washouts in between. Total compound incubation time before the next pulse train was not longer than 10 seconds. Peak current inhibition was observed during compound equilibration.
AUC and peak values were obtained with Patchmaster (HEKA Elektronik Dr. Schulze GmbH). To determine IC50, the last single pulse in the pulse train corresponding to a given compound concentration was used. Obtained AUC and peak values in the presence of compound were normalized to control values in the absence of compound. Using Origin (OridinLab), IC50 was derived from data fit to Hill equation: Icompound/Icontrol=(100−A)/(1+([compound]/IC50)nH)+A, where IC50 value is the concentration at which current inhibition is half-maximal, [compound] is the applied compound concentration, A is the fraction of current that is not blocked and nH is the Hill coefficient.

T1 sequence (P22001 whole entry): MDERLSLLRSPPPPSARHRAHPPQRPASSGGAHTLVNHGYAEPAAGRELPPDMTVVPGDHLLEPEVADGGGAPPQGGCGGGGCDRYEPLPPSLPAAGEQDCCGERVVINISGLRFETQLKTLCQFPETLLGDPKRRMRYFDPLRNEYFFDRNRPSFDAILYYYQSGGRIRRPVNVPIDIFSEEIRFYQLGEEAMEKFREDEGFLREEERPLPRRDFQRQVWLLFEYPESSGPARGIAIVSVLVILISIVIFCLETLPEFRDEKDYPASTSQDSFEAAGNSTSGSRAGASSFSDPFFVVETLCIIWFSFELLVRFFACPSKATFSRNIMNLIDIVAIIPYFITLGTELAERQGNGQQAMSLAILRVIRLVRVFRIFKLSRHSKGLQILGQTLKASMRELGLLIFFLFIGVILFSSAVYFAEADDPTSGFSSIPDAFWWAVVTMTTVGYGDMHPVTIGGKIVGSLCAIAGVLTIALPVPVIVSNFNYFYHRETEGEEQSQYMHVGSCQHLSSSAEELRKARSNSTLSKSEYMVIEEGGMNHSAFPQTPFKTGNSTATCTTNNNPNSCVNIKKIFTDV

Row | Structure (SMILES) | IC50 [µM]
1 | NC[C@H]1NC(=O)[C@@H]2C[C@H](c3c(O)ccc(Cl)c3Cl)CCN2C1=O (relative stereo) [Compound 38, (8R,9aS)-rel-3-((3R)-aminomethyl)-8-(2,3-dichloro-6-hydroxyphenyl)-hexahydro-2H-pyrido[1,2-a]pyrazine-1,4-dione; trifluoroacetic acid] | < 1
2 | O=C1NC(=O)N2CC[C@@H](c3c(O)ccc(Cl)c3Cl)C[C@@H]12 (single isomer, unassigned; diastereoisomer 2) [Compound 19, 7-(2,3-dichloro-6-hydroxyphenyl)tetrahydro-imidazo[1,5-a]pyridine-1,3(2H,5H)-dione diastereoisomer 2] | < 1
3 | O=C1[C@H]2C[C@@H](c3c(O)ccc(Cl)c3Cl)CCN2C(=O)CN1C1CC(O)C1 (single isomer, unassigned; isomer 3) [Compound 34, 8-(2,3-dichloro-6-hydroxyphenyl)-2-[3-hydroxycyclobutyl]-hexahydropyrido[1,2-a]pyrazine-1,4-dione isomer 3] | < 10
4 | O=C1[C@H]2C[C@H](O)CN2C(=O)[C@H]2C[C@@H](c3c(O)ccc(Cl)c3Cl)CCN12 (single isomer, unassigned; isomer 1) [Compound 23, 7-(2,3-dichloro-6-hydroxyphenyl)-2-hydroxyhexahydro-1H-pyrido[1,2-a]pyrrolo[1,2-d]pyrazine-5,11(5aH,11aH)-dione isomer 1] | < 10
5 | Cc1c(Cl)ccc(O)c1[C@@H]1CCN2C(=O)[C@@H](CO)NC(=O)[C@@H]2C1 (relative stereo) [Compound 49, (8R,9aS)-rel-8-(3-chloro-6-hydroxy-2-methylphenyl)-3-((3R)-hydroxymethyl)-hexahydro-2H-pyrido[1,2-a]pyrazine-1,4-dione] | < 10
6 | O=C1[C@H]2[C@@H](O)CCN2C(=O)[C@H]2C[C@@H](c3c(O)ccc(Cl)c3Cl)CCN12 [Compound 25, (1S,5aR,7S,11aR)-7-(2,3-dichloro-6-hydroxyphenyl)-1-hydroxyhexahydro-1H-pyrido[1,2-a]pyrrolo[1,2-d]pyrazine-5,11(5aH,11aH)-dione] | < 10
7 | NN1C(=O)[C@H]2C[C@@H](c3c(O)ccc(Cl)c3Cl)CCN2C1=O [Compound 27, (7S,8aR)-2-amino-7-(2,3-dichloro-6-hydroxyphenyl)tetrahydro-imidazo[1,5-a]pyridine-1,3(2H,5H)-dione] | < 1
8 | O=C1[C@H]2C[C@@H](O)CN2C(=O)[C@H]2C[C@@H](c3c(O)ccc(Cl)c3Cl)CCN12 [Compound 59, (2R,5aR,7S,11aR)-7-(2,3-dichloro-6-hydroxyphenyl)-2-hydroxyhexahydro-1H-pyrido[1,2-a]pyrrolo[1,2-d]pyrazine-5,11(5aH,11aH)-dione] | < 10
9 | CC(C)[C@@H](O)[C@@H]1NC(=O)[C@@H]2C[C@H](c3c(O)ccc(Cl)c3Cl)CCN2C1=O [Compound 42, (3S,8R,9aS)-8-(2,3-dichloro-6-hydroxyphenyl)-3-[(1R)-1-hydroxy-2-methylpropyl]-hexahydro-2H-pyrido[1,2-a]pyrazine-1,4-dione] | < 1
10 | CC[C@H]1NC(=O)[C@@H]2C[C@H](c3c(O)ccc(Cl)c3Cl)CCN2C1=O [Compound 51, (8R,9aS)-8-(2,3-dichloro-6-hydroxyphenyl)-3-(3R)-ethyl-hexahydro-2H-pyrido[1,2-a]pyrazine-1,4-dione] | < 30
11 | O=C1N[C@H](CO)C(=O)N2CC[C@H](c3c(O)cc(Cl)c(Cl)c3Cl)C[C@H]12 [Compound 66, (8S,9aR)3-((3R)-hydroxymethyl)-8-(2,3,4-trichloro-6-hydroxyphenyl)-hexahydro-2H-pyrido[1,2-a]pyrazine-1,4-dione] | < 10
12 | CC(C)[C@H]1NC(=O)[C@H]2C[C@@H](c3c(O)ccc(Cl)c3Cl)CCN2C1=O [Compound 48, (8S,9aR)-8-(2,3-dichloro-6-hydroxyphenyl)-3-(3R)-isopropyl-hexahydro-2H-pyrido[1,2-a]pyrazine-1,4-dione] | < 10

Second part, the molecule after the results:

Row | IC50 [µM] | Structure (SMILES)
13 | < 10 | CC(C)[C@@H](O)[C@@H]1NC(=O)[C@H]2C[C@@H](c3c(O)ccc(Cl)c3Cl)CCN2C1=O [Compound 39, (3S,8S,9aR)-8-(2,3-dichloro-6-hydroxyphenyl)-3-[(1R)-1-hydroxy-2-methylpropyl]-hexahydro-2H-pyrido[1,2-a]pyrazine-1,4-dione]
14 | < 1 | O=C1NNC(=O)N2CC[C@@H](c3c(O)ccc(Cl)c3Cl)C[C@@H]12 [Compound 33, (8R,9aS)-8-(2,3-dichloro-6-hydroxyphenyl)hexahydro-4H-pyrido[1,2-d][1,2,4]triazine-1,4(6H)-dione]
15 | < 10 | CC1(C)NC(=O)C2CC(c3c(O)ccc(Cl)c3Cl)CCN2C1=O (centres unmarked) [Compound 47, 8-(2,3-dichloro-6-hydroxyphenyl)-3,3-dimethyl-octahydro-1H-pyrido[1,2-a]pyrazine-1,4-dione]
16 | < 1 | CC[C@H]1NC(=O)[C@H]2C[C@@H](c3c(O)ccc(Cl)c3Cl)CCN2C1=O [Compound 11, (8S,9aR)-8-(2,3-dichloro-6-hydroxyphenyl)-3-(3R)-ethyl-hexahydro-2H-pyrido[1,2-a]pyrazine-1,4-dione]
17 | < 30 | CN1C(=O)[C@H]2C[C@@H](c3c(O)ccc(Cl)c3Cl)CCN2C(=O)[C@H]1CO [Compound 13, (3R,8S,9aR)-8-(2,3-dichloro-6-hydroxyphenyl)-3-(hydroxymethyl)-2-methyl-hexahydropyrido[1,2-a]pyrazine-1,4-dione]
18 | < 10 | O=C1[C@H]2C[C@@H](c3c(O)ccc(Cl)c3Cl)CCN2C(=O)CN1C(CO)CO [Compound 21, (8S,9aR)-8-(2,3-dichloro-6-hydroxyphenyl)-2-(1,3-dihydroxypropan-2-yl)hexahydro-4H-pyrido[1,2-a]pyrazine-1,4(6H)-dione]
19 | < 1 | O=C1[C@H]2[C@H](O)CCN2C(=O)[C@@H]2C[C@H](c3c(O)ccc(Cl)c3Cl)CCN12 (single isomer, unassigned; isomer 3) [Compound 69, 7-(2,3-dichloro-6-hydroxyphenyl)-1-hydroxyhexahydro-1H-pyrido[1,2-a]pyrrolo[1,2-d]pyrazine-5,11(5aH,11aH)-dione isomer 3]
20 | < 1 | O=C1[C@H]2[C@H](O)CCN2C(=O)[C@H]2C[C@@H](c3c(O)ccc(Cl)c3Cl)CCN12 (single isomer, unassigned; isomer 2) [Compound 17, 7-(2,3-dichloro-6-hydroxyphenyl)-1-hydroxyhexahydro-1H-pyrido[1,2-a]pyrrolo[1,2-d]pyrazine-5,11(5aH,11aH)-dione isomer 2]
21 | < 30 | O=C1N[C@H](CCO)C(=O)N2CC[C@H](c3c(O)ccc(Cl)c3Cl)C[C@H]12 [Compound 63, (3R,8S,9aR)-8-(2,3-dichloro-6-hydroxyphenyl)-3-(2-hydroxyethyl)-hexahydro-2H-pyrido[1,2-a]pyrazine-1,4-dione]
22 | < 10 | CC(C)[C@H](O)[C@H]1NC(=O)[C@H]2C[C@@H](c3c(O)ccc(Cl)c3Cl)CCN2C1=O [Compound 61, (3R,8S,9aR)-8-(2,3-dichloro-6-hydroxyphenyl)-3-[(1S)-1-hydroxy-2-methylpropyl]-hexahydro-2H-pyrido[1,2-a]pyrazine-1,4-dione]
23 | < 1 | O=C1N[C@H](CCO)C(=O)N2CC[C@@H](c3c(O)ccc(Cl)c3Cl)C[C@@H]12 [Compound 70, (3R,8R,9aS)-8-(2,3-dichloro-6-hydroxyphenyl)-3-(2-hydroxyethyl)-hexahydro-2H-pyrido[1,2-a]pyrazine-1,4-dione]
24 | < 10 | O=C1[C@H]2C[C@@H](c3c(O)ccc(Cl)c3Cl)CCN2C(=O)CN1C1CC(O)C1 (single isomer, unassigned; isomer 4) [Compound 5, 8-(2,3-dichloro-6-hydroxyphenyl)-2-[3-hydroxycyclobutyl]-hexahydropyrido[1,2-a]pyrazine-1,4-dione isomer 4]
25 | < 10 | C[C@@H](O)[C@H]1NC(=O)[C@H]2C[C@@H](c3c(O)ccc(Cl)c3Cl)CCN2C1=O [Compound 16, (3R,8S,9aR)-8-(2,3-dichloro-6-hydroxyphenyl)-3-[(1R)-1-hydroxyethyl]-hexahydro-2H-pyrido[1,2-a]pyrazine-1,4-dione]
26 | < 10 | O=C1N[C@@H](CO)C(=O)N2CC[C@H](c3c(O)ccc(Cl)c3Cl)C[C@H]12 [Compound 46, (3S,8S,9aR)-8-(2,3-dichloro-6-hydroxyphenyl)-3-(hydroxymethyl)hexahydro-4H-pyrido[1,2-a]pyrazine-1,4(6H)-dione]
